This is an account of results in ChEMBL document CHEMBL1148572, “1-((S)-2-aminopropyl)-1H-indazol-6-ol: a potent peripherally acting 5-HT2 receptor agonist with ocular hypotensive activity” (J Med Chem, 2006).

Assay [1] deals with Glutamate receptor ionotropic kainate (Homo sapiens) (UniProt P39086+Q16478+Q16099+Q13002+Q13003). In words: Inhibition of kainate receptor at 100 nM. It counts as protein-complex assay.
The target in assay [2] is T1, Glutamate [NMDA] receptor (Homo sapiens) (UniProt Q05586+Q12879+Q13224+O15399+O60391+Q14957+Q8TCU5). The assay is described as follows: Inhibition of agonist site of NMDA receptor at 100 nM. In kind it is functional.
A short description of assay [3]: Inhibition of alpha-bungarotoxin insensitive nicotinic receptor at 10 uM.
In assay [4] the target is T2, Opioid receptors; mu/kappa/delta (Homo sapiens) (UniProt P41145+P41143+P35372). The assay is described as follows: Inhibition of non selective binding to opiate receptor at 1 nM. In kind it is protein assay.
T2 sequence (P35372 whole entry, looked up): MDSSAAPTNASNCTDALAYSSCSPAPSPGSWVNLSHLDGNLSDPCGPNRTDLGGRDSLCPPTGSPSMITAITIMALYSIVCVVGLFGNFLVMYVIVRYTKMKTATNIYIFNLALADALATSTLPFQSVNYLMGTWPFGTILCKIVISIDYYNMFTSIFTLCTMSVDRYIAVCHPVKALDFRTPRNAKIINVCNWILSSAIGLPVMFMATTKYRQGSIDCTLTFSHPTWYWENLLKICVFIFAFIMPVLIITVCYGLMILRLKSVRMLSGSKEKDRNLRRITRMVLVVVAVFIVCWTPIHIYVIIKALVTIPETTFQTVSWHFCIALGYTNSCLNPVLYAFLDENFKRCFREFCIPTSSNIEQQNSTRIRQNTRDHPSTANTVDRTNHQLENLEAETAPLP
T2 sequence (P41143 whole entry, looked up): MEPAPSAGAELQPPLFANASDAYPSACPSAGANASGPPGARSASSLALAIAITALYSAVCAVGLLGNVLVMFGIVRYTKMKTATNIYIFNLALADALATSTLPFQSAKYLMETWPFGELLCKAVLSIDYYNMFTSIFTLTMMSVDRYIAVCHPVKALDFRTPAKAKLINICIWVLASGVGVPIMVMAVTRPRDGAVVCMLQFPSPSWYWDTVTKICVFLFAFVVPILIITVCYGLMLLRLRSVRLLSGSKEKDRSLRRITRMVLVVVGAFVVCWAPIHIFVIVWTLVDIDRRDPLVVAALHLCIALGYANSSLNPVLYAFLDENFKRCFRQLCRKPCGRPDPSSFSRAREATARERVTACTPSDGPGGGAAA
T2 sequence (P41145 whole entry, looked up): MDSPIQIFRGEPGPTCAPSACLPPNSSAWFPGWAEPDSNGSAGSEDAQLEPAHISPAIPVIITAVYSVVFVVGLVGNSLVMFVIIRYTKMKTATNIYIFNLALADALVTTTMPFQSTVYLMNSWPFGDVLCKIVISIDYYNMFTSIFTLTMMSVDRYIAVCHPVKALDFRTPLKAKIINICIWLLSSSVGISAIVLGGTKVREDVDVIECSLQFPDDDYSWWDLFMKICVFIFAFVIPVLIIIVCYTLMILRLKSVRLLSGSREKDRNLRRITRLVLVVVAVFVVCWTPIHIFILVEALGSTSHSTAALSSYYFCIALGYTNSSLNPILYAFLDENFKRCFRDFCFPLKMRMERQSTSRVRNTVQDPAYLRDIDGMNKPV
Assay [5] addresses T2, Opioid receptors; mu/kappa/delta (Homo sapiens). In words: Inhibition of non selective binding to opiate receptor at 100 nM. In kind it is protein assay.
Assay [6] addresses T3, Androgen receptor (Homo sapiens) (UniProt P10275).
T3 sequence (whole entry): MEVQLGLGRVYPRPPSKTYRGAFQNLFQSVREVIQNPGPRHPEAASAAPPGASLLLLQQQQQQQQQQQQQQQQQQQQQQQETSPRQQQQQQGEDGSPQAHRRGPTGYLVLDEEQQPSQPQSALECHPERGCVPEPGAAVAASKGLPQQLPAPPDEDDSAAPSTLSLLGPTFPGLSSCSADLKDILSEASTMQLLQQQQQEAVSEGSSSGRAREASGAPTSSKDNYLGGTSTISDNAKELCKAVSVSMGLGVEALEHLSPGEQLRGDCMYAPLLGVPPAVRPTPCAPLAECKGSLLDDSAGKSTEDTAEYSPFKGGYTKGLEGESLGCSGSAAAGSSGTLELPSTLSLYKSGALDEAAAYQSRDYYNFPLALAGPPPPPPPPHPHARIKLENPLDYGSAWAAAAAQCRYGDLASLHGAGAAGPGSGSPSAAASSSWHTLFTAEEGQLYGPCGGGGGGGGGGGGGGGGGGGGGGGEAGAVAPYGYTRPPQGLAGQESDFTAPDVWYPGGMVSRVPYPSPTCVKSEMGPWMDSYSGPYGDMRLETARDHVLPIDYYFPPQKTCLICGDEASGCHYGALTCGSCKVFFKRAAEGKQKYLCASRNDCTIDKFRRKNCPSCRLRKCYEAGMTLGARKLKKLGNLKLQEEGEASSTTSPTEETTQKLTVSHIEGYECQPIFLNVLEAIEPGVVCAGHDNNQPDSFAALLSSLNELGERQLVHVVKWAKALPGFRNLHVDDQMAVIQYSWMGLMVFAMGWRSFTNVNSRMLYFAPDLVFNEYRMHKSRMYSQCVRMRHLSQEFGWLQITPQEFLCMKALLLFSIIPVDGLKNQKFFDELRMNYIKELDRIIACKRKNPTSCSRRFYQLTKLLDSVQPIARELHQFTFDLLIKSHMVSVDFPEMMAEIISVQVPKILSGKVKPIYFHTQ
The assay is described as follows: Inhibition of testosterone receptor at 10 uM.

Assay [7] deals with T1, Glutamate [NMDA] receptor (Homo sapiens). The assay is described as follows: Inhibition of MK-801 site of glutamate receptor at 10 uM. In kind it is protein-complex assay.
Assay [8] can be described thus: Inhibitory activity at site 2 of sodium channel at 1 nM.
The target of assay [9] is Epidermal growth factor receptor (Homo sapiens) (UniProt P00533). The assay is described as follows: Inhibition of EGFR at 1 nM.
The target in assay [10] is Platelet-activating factor receptor (Homo sapiens) (UniProt P25105). The assay is described as follows: Inhibition of PAF at 10 uM.
Platelet-activating factor receptor (Homo sapiens), sequence (P25105 whole entry): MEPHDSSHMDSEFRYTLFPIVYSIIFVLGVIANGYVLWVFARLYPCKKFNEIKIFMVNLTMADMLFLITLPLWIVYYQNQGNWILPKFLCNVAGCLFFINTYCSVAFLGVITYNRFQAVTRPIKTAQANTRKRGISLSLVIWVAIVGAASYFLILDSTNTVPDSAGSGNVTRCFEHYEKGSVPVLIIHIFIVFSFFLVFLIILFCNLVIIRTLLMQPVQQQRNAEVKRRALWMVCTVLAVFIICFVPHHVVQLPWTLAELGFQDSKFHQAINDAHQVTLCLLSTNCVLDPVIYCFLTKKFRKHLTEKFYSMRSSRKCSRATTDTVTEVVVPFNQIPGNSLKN
Assay [11] has as its target Substance-P receptor (Homo sapiens) (UniProt P25103). The assay is described as follows: Inhibition of neurokinin 1 receptor at 10 uM.
Assay [12] addresses T4, Adenosine receptor (Homo sapiens) (UniProt P30542+P29275+P0DMS8+P29274). The assay is described as follows: Inhibition of non selective binding to adenosine receptor at 1 nM. In kind it is protein assay.
In assay [13] the target is T4, Adenosine receptor (Homo sapiens). In words: Inhibition of non selective binding to adenosine receptor at 100 nM. It counts as protein assay.
Assay [14] addresses 5-hydroxytryptamine receptor 2A (Rattus norvegicus) (UniProt P14842). The assay is described as follows: (§1) Activity against 5HT2A mediated intracellular calcium mobilization by FLIPR in rat vascular smooth muscle cells. In kind it is functional, cell-based.
Assay [15] has as its target 5-hydroxytryptamine receptor 2A (Rattus norvegicus, UniProt P14842). Described as §1. In kind it is functional, cell-based.
In assay [16] the target is T5, 5-hydroxytryptamine receptor 1A (Homo sapiens, UniProt P08908).
T5 sequence (P08908 whole entry): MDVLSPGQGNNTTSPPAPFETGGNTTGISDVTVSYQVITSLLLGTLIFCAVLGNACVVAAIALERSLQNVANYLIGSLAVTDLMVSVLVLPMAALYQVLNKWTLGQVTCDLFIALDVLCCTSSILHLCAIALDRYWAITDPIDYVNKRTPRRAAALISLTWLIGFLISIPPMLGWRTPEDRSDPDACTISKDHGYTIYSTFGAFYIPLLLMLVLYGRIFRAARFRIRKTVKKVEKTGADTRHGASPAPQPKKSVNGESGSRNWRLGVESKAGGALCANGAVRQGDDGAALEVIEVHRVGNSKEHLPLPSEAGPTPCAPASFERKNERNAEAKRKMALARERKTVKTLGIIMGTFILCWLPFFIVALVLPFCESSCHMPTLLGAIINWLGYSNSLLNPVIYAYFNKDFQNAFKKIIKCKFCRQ
In words: Displacement of [3H]8-OH-DPAT from recombinant human 5HT1A receptor expressed in CHO cells. In kind it is cell-based. (Loss of bound radioactivity is the signal in a displacement assay; it reports binding, not function.)

In assay [17] the target is Serotonin 3 (5-HT3) receptor. In words: Inhibitory activity against 5HT3 receptor. It counts as protein-complex assay, Homo sapiens.
Assay [18] deals with T6, Adrenergic receptor beta (Homo sapiens) (UniProt P08588+P07550+P13945). The assay is described as follows: Inhibition of non selective binding to adrenergic beta receptor at 1 nM. In kind it is protein assay.
The target of assay [19] is T6, Adrenergic receptor beta (Homo sapiens). The assay is described as follows: Inhibition of non selective binding to adrenergic beta receptor at 10 uM. It counts as protein assay.
Assay [20] has as its target Dopamine receptor (Homo sapiens) (UniProt P14416+P35462+P21918+P21917+P21728). In words: Inhibition of non selective binding to dopamine receptor at 1 nM. In kind it is protein assay.
Assay [21] concerns the target 5-hydroxytryptamine receptor 2B (Homo sapiens, UniProt P41595). The assay is described as follows: biochemical.
Description: Displacement of [125I]DOI from cloned human 5HT2B receptor expressed in CHO cells
The target of assay [22] is T7, 5-hydroxytryptamine receptor 2C (Homo sapiens, UniProt P28335).
T7 sequence (P28335 whole entry): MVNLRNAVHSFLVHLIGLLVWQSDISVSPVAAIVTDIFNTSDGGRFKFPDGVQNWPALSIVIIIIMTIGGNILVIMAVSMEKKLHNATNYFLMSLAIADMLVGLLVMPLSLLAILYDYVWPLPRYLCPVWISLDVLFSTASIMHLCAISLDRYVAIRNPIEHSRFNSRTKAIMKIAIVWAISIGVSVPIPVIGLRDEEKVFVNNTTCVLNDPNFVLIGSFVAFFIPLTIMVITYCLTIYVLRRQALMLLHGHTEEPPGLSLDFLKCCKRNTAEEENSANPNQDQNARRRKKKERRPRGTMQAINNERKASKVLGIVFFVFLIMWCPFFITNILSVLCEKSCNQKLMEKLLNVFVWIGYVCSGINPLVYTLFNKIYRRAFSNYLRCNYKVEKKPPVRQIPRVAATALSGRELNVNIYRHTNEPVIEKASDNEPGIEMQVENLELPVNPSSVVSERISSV
The assay is described as follows: biochemical.
Description: Displacement of [125I]DOI from cloned human 5HT2C receptor expressed in CHO cells

T4 sequence (P0DMS8 whole entry, looked up): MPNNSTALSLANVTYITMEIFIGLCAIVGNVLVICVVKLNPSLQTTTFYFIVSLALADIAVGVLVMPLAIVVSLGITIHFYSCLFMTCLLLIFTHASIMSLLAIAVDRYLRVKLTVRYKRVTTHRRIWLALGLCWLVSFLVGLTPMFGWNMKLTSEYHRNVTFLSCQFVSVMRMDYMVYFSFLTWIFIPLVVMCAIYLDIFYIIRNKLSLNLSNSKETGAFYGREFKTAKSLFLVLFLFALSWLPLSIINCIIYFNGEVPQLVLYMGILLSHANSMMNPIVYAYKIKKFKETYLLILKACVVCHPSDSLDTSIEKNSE
T4 sequence (P29274 whole entry, looked up): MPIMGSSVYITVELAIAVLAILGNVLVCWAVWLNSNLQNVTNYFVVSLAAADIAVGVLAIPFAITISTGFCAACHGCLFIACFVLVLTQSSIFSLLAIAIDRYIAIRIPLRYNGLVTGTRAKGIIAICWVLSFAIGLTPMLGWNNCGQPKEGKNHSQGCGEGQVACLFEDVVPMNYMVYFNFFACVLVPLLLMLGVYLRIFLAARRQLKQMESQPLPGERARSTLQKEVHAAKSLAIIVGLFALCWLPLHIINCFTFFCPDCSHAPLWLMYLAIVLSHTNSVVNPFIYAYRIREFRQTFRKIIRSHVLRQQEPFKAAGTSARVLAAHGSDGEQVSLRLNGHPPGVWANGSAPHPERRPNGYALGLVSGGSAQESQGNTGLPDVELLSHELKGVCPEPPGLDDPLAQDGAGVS
T4 sequence (P29275 whole entry, looked up): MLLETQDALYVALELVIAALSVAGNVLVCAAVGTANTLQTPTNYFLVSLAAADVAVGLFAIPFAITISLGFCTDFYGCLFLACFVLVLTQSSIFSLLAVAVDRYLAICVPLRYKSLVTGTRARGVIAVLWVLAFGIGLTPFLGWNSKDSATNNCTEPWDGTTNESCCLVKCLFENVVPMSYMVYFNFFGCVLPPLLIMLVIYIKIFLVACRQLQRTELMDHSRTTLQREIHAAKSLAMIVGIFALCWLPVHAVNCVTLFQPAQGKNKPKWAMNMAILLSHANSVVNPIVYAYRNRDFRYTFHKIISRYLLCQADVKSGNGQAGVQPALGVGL
T4 sequence (P30542 whole entry, looked up): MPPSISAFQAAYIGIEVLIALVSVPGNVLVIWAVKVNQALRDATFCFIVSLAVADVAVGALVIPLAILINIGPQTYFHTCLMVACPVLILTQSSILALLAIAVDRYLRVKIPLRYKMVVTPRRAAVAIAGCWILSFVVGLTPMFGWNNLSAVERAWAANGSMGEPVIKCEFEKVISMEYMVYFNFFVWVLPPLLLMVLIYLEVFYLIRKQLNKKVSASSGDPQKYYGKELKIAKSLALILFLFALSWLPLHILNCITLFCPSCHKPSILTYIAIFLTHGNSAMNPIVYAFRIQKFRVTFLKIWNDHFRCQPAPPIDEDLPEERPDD
5-hydroxytryptamine receptor 2A, sequence (P14842 whole entry): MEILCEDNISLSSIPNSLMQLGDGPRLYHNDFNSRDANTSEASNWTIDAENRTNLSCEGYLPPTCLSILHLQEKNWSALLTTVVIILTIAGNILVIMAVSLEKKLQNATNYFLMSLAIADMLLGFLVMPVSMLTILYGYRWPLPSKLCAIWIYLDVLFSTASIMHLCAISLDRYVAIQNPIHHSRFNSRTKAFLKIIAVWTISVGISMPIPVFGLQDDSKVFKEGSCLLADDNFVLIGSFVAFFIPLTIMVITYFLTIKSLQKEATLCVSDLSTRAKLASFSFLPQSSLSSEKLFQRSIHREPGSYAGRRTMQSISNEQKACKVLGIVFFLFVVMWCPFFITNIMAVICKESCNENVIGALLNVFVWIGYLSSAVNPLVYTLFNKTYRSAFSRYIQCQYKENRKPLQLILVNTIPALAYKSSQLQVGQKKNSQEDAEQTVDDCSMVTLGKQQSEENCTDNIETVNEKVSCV
5-hydroxytryptamine receptor 2A (Rattus norvegicus), sequence (P14842 whole entry): as above
5-hydroxytryptamine receptor 2B, sequence (P41595 whole entry): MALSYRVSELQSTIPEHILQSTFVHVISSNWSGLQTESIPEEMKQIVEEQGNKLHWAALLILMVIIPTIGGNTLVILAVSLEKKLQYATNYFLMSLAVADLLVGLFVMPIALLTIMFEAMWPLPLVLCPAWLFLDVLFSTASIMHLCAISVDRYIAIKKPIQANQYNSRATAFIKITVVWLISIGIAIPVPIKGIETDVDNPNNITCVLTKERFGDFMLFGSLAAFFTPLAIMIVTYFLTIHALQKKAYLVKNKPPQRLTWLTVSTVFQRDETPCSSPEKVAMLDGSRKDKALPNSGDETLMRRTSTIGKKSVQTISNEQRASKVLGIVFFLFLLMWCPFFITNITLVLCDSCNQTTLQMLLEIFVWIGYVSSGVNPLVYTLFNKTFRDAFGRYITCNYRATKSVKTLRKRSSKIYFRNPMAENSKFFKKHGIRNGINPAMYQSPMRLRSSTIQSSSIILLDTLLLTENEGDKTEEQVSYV
Substance-P receptor (Homo sapiens), sequence (P25103 whole entry): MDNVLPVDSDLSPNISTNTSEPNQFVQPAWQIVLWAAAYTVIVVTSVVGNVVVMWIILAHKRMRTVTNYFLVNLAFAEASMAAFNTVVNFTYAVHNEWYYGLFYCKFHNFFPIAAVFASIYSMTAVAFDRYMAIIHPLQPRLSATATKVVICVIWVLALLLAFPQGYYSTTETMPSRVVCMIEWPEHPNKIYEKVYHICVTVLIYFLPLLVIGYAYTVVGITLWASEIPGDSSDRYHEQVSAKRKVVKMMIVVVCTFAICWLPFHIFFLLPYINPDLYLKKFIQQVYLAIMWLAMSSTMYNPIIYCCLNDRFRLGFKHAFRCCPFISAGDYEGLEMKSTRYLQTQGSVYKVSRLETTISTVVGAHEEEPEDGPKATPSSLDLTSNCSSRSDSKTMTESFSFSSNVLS

With `C[C@H](N)Cn1ncc2ccc(O)cc21`, the inhibition was 6.16% in assay [1]; 15.7% in [2]; 7.7% in assay [3]; -6.1% in assay [4]; -2.14% in assay [5]; 21.9% in [6]. The inhibition in assay [7] is 15.1%; in assay [8], 10.3%; in [9], 1.44%; in assay [10], 34.4%; in assay [11], 33%; in assay [12] it was 11.2%. Also, the inhibition in assay [13] is 13.6%; in assay [18] it was -5.75%; in assay [19] it was 30.4%; in assay [20] it was 10.7%. The Emax in [14] is 81%. Also, in [15], the EC50 worked out at 42.7 nM. In addition, the inhibition constant Ki in assay [16] is 141 nM; in assay [17] it was above 10000 nM; in assay [21], 8.1 nM; in assay [22], 3 nM.

For orientation: inhibition means the relative decrease from the control value, in per cent. What is called Emax is the greatest response seen or fitted, relative to the assay's reference. As usually defined, the EC50 is the concentration that produces a half-maximal response. As usually defined, the Ki is a measure of affinity in units of concentration, obtained from inhibition or displacement.
